According to PMC6968712, “SPA: a peptide antagonist that acts as a cell-penetrating peptide for drug delivery” (Drug Delivery, 2019):
Where a SMILES comes first, the peptide text is derived from it. Where no end group is shown, it is not given here. [ ]: non-standard residue; d: D form.

What was measured:
[1] = tested on: CHO cells; experiment: LDH leakage assay; type: cell-based; settings: 1 h, 100% = 0.2% Triton X-100
Procedure: The LDH leakage was measured using the Cytotoxicity Detection Kit (Roche). CHO cells were seeded at 1 × 10^4 cells/well in 96-well plate 24 h before treatment. After treatment with SPA at various concentrations for 1 h, 40 μL medium was transferred to a 96-well plate and incubated for 15 min with 40 μL reaction mixture, followed by 20 μL stop solution. […] was measured using microplate reader (Thermo scientific) at 490 nm. Untreated cells were defined as no leakage and 100% leakage was defined as total LDH release by lysing cells in 0.2% Triton X-100.

[2] = Enzymatic stability in serum; type: in vitro ADME; settings: 15 μL 10 mM peptide in 285 μL 100% mice serum, 37 °C, 0–3 h, RP-HPLC, triplicate
Procedure: (§1) The enzymatic stability of SPA toward trypsin and mice serum was determined following a procedure reported in our previous study (Song et al., [2013]). A portion of 15 μL peptide stock solution (10 mM) was added to 285 μL trypsin solution (10 μg/mL) or 100% serum. Incubations were carried out at 37 °C for 0, 0.5, 1, 2 and 3 h in triplicate. A portion of 40 μL aliquots were diluted with 80 μL water/acetonitrile (60:40 v/v) containing 1% TFA and analyzed by RP-HPLC (Waters). The peptides were eluted using a liner gradient of 5–95% acetonitrile in 0.1% trifluoroacetic acid at a flow rate of 1 mL/min within 30 min on a C18 column (Waters XBridge Columns, 10 μM, 4.6*250 mm). The remaining full-length peptide concentration was normalized with respect to the initial concentration.

[3] = tested on: CHO cells; experiment: MTT cytotoxicity assay of SPA (24 h); type: cell-based; settings: various concentrations
Procedure: Cells were treated with SPA at various concentrations for 24 h. The cytotoxicity of SPA was determined by MTT assay. The absorbance was determined using microplate reader (Thermo scientific) at 570 nm.

[4] = tested on: trypsin; experiment: Enzymatic stability toward trypsin; type: in vitro ADME; settings: 15 μL 10 mM peptide in 285 μL trypsin solution (10 μg/mL), 37 °C, after incubation for 360 min as printed, RP-HPLC, triplicate
Procedure: as §1, with “Incubations were carried out at 37 °C for 0, 0.5, 1, 2 and 3 h in triplicate.” left out

[5] = tested on: Erythrocytes; experiment: Hemolysis assay; type: cell-based; settings: mice erythrocytes, even at 200 μM, 1 h, 37 °C
Procedure: Erythrocytes were obtained from freshly collected mice blood and resuspended in PBS to 4% (V/V). After 100 μL the erythrocyte suspension being seeded in 96-well plate, the cells were incubated with 100 μL peptides solution at different concentrations for 1 h at 37 °C. The plates were centrifuged at 1000 g for 10 min and the released hemoglobin was determined using microplate reader (Thermo scientific) at 450 nm. PBS and 0.1% Triton X-100 were used as agents for 0 and 100% hemolysis, respectively.

[6] = tested on: CHO cells; experiment: MTT antiproliferative assay of SPA-CPT conjugate; type: cell-based; settings: treated 1 h, washed, cultured 72 h
Procedure: CHO, MDA-MB-231and U251 cells were seeded at 5 × 10^3 cells/well in 96-well plates 24 h before treatment, respectively. […] After washing with medium to remove the remaining agents, the cells were cultured for 72 h and the antiproliferative effects of the relevant agents were determined by the MTT assay.

[7] = RP-HPLC retention time as measure of peptide hydrophobicity; type: physicochemical; settings: Table S1; chromatographic, C18 (Waters XBridge, 4.6*250 mm), linear gradient 5–95% acetonitrile in 0.1% trifluoroacetic acid within 30 min, 1 mL/min
Procedure: Purity analysis was checked by analytical RP-HPLC (Waters), and the peptides were eluted using a liner gradient of 5–95% acetonitrile in 0.1% trifluoroacetic acid at a flow rate of 1 mL/min within 30 min on a C18 column (Waters XBridge Columns, 10 μM, 4.6*250 mm). The retention time of each peptide was determined when the peak was at its maximum height.

[8] = tested on: CHO cells; experiment: Flow cytometry assay of cellular uptake; type: cell-based; settings: 1 h
Procedure: CHO cells were treated with 10 μM FITC labeled peptides for 1 h, and then the cells were harvested and finally resuspended in PBS after washing twice with PBS. The fluorescence of cells was analyzed on a FACS Caliber. To explore the uptake mechanism of SPA, CHO cells were preincubated at 4 °C and then treated with 10 μM FITC-labeled SPA at 4 °C or 37 °C for 1 h. In experiments with chloroquine, CHO cells were incubated with FITC-labeled SPA and 100 μM chloroquine at 37 °C for 1 h. In experiments with endocytosis inhibitor, cells were pretreated with 10 μg/mL chlorpromazine, 50 μM amiloride or 5 mM methyl-β-cyclodextrin at 37 °C for 0.5 h and then treated with 10 μM FITC-labeled SPA for 1 h. Cells were harvested and analyzed by a FACS Caliber (BD).

CC[C@H](C)[C@H](NC(=O)CN)C(=O)NCC(=O)N[C@@H](C)C(=O)N[C@H](C(=O)N[C@@H](CC(C)C)C(=O)N[C@@H](CCCCN)C(=O)N[C@H](C(=O)N[C@@H](CC(C)C)C(=O)N[C@H](C(=O)N[C@H](C(=O)NCC(=O)N[C@@H](CC(C)C)C(=O)N1CCC[C@H]1C(=O)N[C@@H](C)C(=O)N[C@@H](CC(C)C)C(=O)N[C@H](C(=O)N[C@@H](CO)C(=O)N[C@@H](Cc1c[nH]c2ccccc12)C(=O)N[C@H](C(=O)N[C@@H](CCCCN)C(=O)N[C@@H](CCCNC(=N)N)C(=O)N[C@@H](CCCCN)C(=O)N[C@@H](CCCNC(=N)N)C(=O)N[C@@H](CCC(N)=O)C(=O)N[C@@H](CCC(N)=O)C(N)=O)[C@@H](C)CC)[C@@H](C)CC)[C@@H](C)O)[C@@H](C)O)C(C)C)C(C)C [melittin, reference compound]
LDH leakage ([1]; 50 μM (positive control)): ~100%

CC(C)C[C@H](NC(=O)[C@H](CC(C)C)NC(=O)[C@@H](Cc1c[nH]c2ccccc12)NC(=O)[C@H](Cc1ccccc1)NC(=O)[C@@H](Cc1c[nH]c2ccccc12)NC(=O)[C@H](CCC(N)=O)NC(=O)[C@@H](Cc1c[nH]c2ccccc12)NC(=O)[C@@H]1CCCN1C(=O)[C@H](CCCCN)NC(=O)[C@@H]1CCCN1C(=O)[C@H](N)CCCN=C(N)N)C(N)=O [SPA, [D-Arg^1, D-Trp^5,7,9, Leu^11]Substance P] (H-[dR]PKP[dW]Q[dW]F[dW]LL-NH2)
LDH leakage ([1]; 160 μM): 35% | stability in serum (remaining full-length peptide) [2]: significantly greater stability in serum than L-SPA | cytotoxicity (MTT) [3]: low cytotoxicity | stability against trypsin (remaining full-length peptide) [4]: not hydrolyzed | hemolytic activity [5]: low hemolytic activity | cytotoxicity / antiproliferative effect (MTT) [6]: no notable cytotoxicity

RPKPWQWFWLL-NH2 [L-SPA]
stability in serum (remaining full-length peptide) [2]: SPA exhibited significantly greater stability in serum than L-SPA | stability against trypsin (remaining full-length peptide) [4]: almost completely degraded

FITC-AHX-YGRKKRRQRRR-NH2 [FITC-TAT, FITC-labeled cell-penetrating peptide TAT used as uptake comparator, reference compound]
retention time [7]: 16.0 min | cellular uptake efficiency (mean fluorescence intensity) ([8]; 10 μM FITC labeled peptides, flow cytometry): cellular uptake efficiency of SPA was lower than that of TAT

FITC-AHX-rPKPwQwFwLL-NH2 [FITC-SPA, SPA labeled with FITC at the N-terminus via an aminohexanoic acid spacer]
retention time [7]: 21.2 min | mean fluorescence on cotreatment with chloroquine ([8]; 10 μM FITC-labeled SPA with 100 μM chloroquine, 37 °C): significantly increased
